Entries after “also recorded” stand apart in the source; their conditions may differ.
How the values were obtained:
Format in all cases: cell-based, human
CLL cells = assay: Flow cytometry, % specific induced apoptosis (DiOC6/PI) in primary CLL cells; conditions: 48 hours
Method: (§1) FIG. 20A-20C: FD-895 and PLAD induce apoptosis in CLL cells but not in normal lymphocytes with a TP53 independent activity: Primary leukemia B cells from CLL (FIG. 20A) patient with del (17p) and Tp53 mutation, (FIG. 20B) patient with wild type p53 and sensitive to F-Ara-A and (FIG. 20C) normal lymphocytes from healthy donor were incubated with FD-895, PLAD and F-Ara-A (0, 10, 100, 1000 10,000 nM) for 48 hours.
(§2) FIG. 21: FD-895 and PLAD induce apoptosis in CLL cells not ONLY independently of Tp53 but also independently of SF3B1 mutational status: Primary leukemia B cells from CLL patient with SF3B1 wild, SF3B1 mutation, 17p DEL and normal B and T lymphocytes from healthy donor were incubated with FD-895 and PLAD with 100 nM for 48 hours. After incubation, the samples were harvested and % SIA was measured by flow cytometry as described above. […] Each dots represents number of CLL patient sample and normal B or T cells.
Peripheral blood mononuclear cells (PBMC) from patients with CLL were obtained from the CLL Research Consortium (CRC) tissue bank. The blood samples were collected after obtaining a written informed consent from the patients under a protocol approved by the institutional review board of The University of California, San Diego. All patients met criteria for CLL.^1 CLL B cells and PBMCs were separated from heparinized venous blood of the B-CLL patients by density gradient centrifugation using Ficoll-Hypaque (GE healthcare) as described earlier.^2 The samples that were used had more than 95% positive cells for CD19 and CD5+, as assessed by flow cytometry. CLL B cells were maintained in RPMI 1640 medium supplemented with 10% FBS, 2 mM L-glutamine, and 100 U/mL of penicillin and 100 μg/mL of streptomycin at 37° C. in an atmosphere of 5% CO2.
(§3) Apoptotic and viable cells were discriminated via flow cytometry of cells stained with 3,3′ dihexyloxacarbocyanine iodide (DiOC6) (Molecular Probes, Eugene, Oreg., USA) and propidium iodine (Sigma, St Louis, Mo., USA), as described.^3 Using this method viable cells exclude PI and stain brightly positive for DiOC6.

[1] = system: normal B lymphocytes from healthy donor; assay: Flow cytometry, % specific induced apoptosis in normal B lymphocytes; conditions: 48 hours
Method: as §1, §2
(§4) Normal B cells were purified from buffy coats of healthy volunteers, obtained from San Diego blood bank. Positive isolation with Dynabeads® CD19 pan B and DETACHaBEAD CD19 (Invitrogen Life Technologies, USA) were used to achieve more than 95% purity by flow cytometry analysis.
as §3

[2] = system: normal T lymphocytes from healthy donor; assay: Flow cytometry, % specific induced apoptosis in normal T lymphocytes; conditions: normal T cells from healthy donors, 100 nM, 48 hours
Method: as §2, §3

GAPDH = assay: RT-PCR of spliced and unspliced mRNA (intron retention) in CLL cells, housekeeping gene; conditions: for intron retention/splicing inhibition of GAPDH: 100 nM, 15 min to 4 hours; for splicing inhibition of housekeeping gene GAPDH: 4 hours, same concentrations
Method: FIG. 23: FD-895 and PLAD induced inhibition of splicing in CLL: RT-PCR for analysis of spliced and unspliced mRNAs. CLL cells treated with FD-895, PLAD (10, 100 nM), chemotherapeutic agent like bendamustine (33, 100 μM) and F-Ara-A (3, 10, 33 μM) for 4 hours. RT-PCR for DNAJB1 was performed with primers spanning two exons; products were analyzed on ethidium bromide-stained agarose gels (2%) to visualize the correct size of the unspliced mRNAs. […] The exon structure of DNAJB1 gene is indicated. G, human genomic DNA was used as a control; U, unspliced mRNA; S, spliced mRNA.
CLL cells were treated with 10 and 100 nM of FD-895 and PLAD, 33 and 100 μM of bendamustine and 3, 10, and 33 μM of F-Ara-A for 4 h. Normal B and CLL cells were treated with 100 nM of FD-895 and PLAD and 10 μM of F-Ara-A for 15 minutes, 30 minutes, 1, 2 and 4 h. Total RNA was extracted using mirVana™ miRNA isolation kit (Ambion Life Technology, USA). After DNase treatment, 200 ng total RNA was reverse-transcribed using a SuperScript™ III first-strand synthesis system (Invitrogen). PCR was performed on 10 ng of the obtained cDNA (or human genomic DNA as a control) in 25 μl of reaction mixture containing Plantinum® PCR SuperMix High-fidelity (Invitrogen Life Technology, USA), and 0.1 μM of each primer of the appropriate pair.
PCR conditions were 94° C. for 3 min; 35 cycles of 94° C. for 30 s, 60° C. for 30 s, and 72° C. for 1 min; followed by 72° C. for 5 min. PCR products were separated on a 2% agarose gel and stained with ethidium bromide.

RIOK3 [3] = assay: Quantitative RT-PCR of unspliced mRNA in CLL cells; conditions: 10 nM, 4 hours
Method: (§5) Quantitative RT-PCR using primers specific for each intron quantified unspliced mRNA for DNAJB1 (FIG. 25A) and RIOK3 (FIG. 25B). GAPDH was used for normalization. […] Error bars indicate S.D.
(§6) CLL cells were treated with 100 nM of FD-895 and PLAD and 10 μM of F-Ara-A for 15 minutes, 1 and 4 h. Normal B and CLL cells were treated with 10, 100, and 1000 nM of FD-895 and PLAD and 10 μM of F-Ara-A for 4 h.
(§7) Extraction of total RNA and cDNA synthesis were performed as described earlier. Unspliced mRNA was quantified using a 7900HT fast Real Time PCR System (Applied Biosystems). The amounts of unspliced mRNA of DNAJB1, and RIOK3 were determined by SYBR green (Power SYBR Green PCR Master Mix, Applied Biosystems) real-time quantitative RT-PCR using specific primers designed for the intron of each gene (see additional information section at the end).
(§8) PCR using 0.2 μM of each primer was performed on 20 ng of the obtained cDNA. PCR conditions were 50° C. for 2 min; 95° C. for 10 min; 35 cycles of 94° C. for 20 s, 55° C. for 20 s, followed by 72° C. for 30 s. The mRNA levels were calculated using 2^−ΔΔCT method.^4 GAPDH was used as a control for normalization.

DNAJB1 = assay: Quantitative RT-PCR of unspliced mRNA in normal B cells; conditions: 4 hours
Method: as §5, §4, §6, §7, §8

RIOK3 [4] = assay: as above; conditions: 4 hours
Method: as §5, §4, §6, §7, §8

[5] = CLL patients with 17p DEL, 100 nM
[6] = CLL patients with SF3B1 mutation, 100 nM
[7] = CLL patients with SF3B1 wild, 100 nM
[8] = CLL patients with Tp53 mutation (so in the source)
[9] = CLL patients with del (17p), 0-10,000 nM
[10] = B cells from healthy donors, 0-10,000 nM
[11] = normal B cells from healthy donors, 100 nM

Compound | apoptosis (% SIA) (CLL cells; [5]) | apoptosis (% SIA) (CLL cells; [6]) | apoptosis (% SIA) (CLL cells; [7]) | apoptosis (% SIA) (CLL cells; [8]) | apoptosis (% SIA) (CLL cells; [9]) | apoptosis (% SIA) [1, 10] | apoptosis (% SIA) [1, 11] | apoptosis (% SIA) [2] | intron retention/splicing inhibition of GAPDH (GAPDH) | splicing inhibition of housekeeping gene GAPDH (GAPDH) | unspliced mRNA of RIOK3 (RIOK3 [3]) | unspliced mRNA of DNAJB1 (DNAJB1) | unspliced mRNA of RIOK3 (RIOK3 [4])
CCC(OC)C(C)C1OC1C(O)C(C)/C=C/C=C(\C)C1OC(=O)CC(O)CCC(C)(O)C(OC(C)=O)/C=C/C1C (centres unmarked) [FD-895] | significant cells death; also recorded: induced apoptosis | significant cells death; also recorded: induced apoptosis | significant cells death | significant death | significant killing | did not induce significant apoptosis | did not induce significant cell death; also recorded: did not show significant apoptosis | did not induce significant cell death; also recorded: did not show significant apoptosis | no intron retention/splicing inhibition | Neither FD-895, PLAD nor chemotherapy agents showed splicing inhibition | clear increase in unspliced mRNA | did not show significant increase in unspliced mRNA | did not show significant increase in unspliced mRNA
Pladienolide B | significant cells death; also recorded: induced apoptosis | significant cells death; also recorded: induced apoptosis | significant cells death | significant death | significant killing | did not induce significant apoptosis | did not induce significant cell death; also recorded: did not show significant apoptosis | did not induce significant cell death; also recorded: did not show significant apoptosis | no intron retention/splicing inhibition | Neither FD-895, PLAD nor chemotherapy agents showed splicing inhibition | clear increase in unspliced mRNA | did not show significant increase in unspliced mRNA | did not show significant increase in unspliced mRNA
